Data on 28 compounds can be found in patent US20230082430A1 (C4 Therapeutics, Inc., priority 2019, published 2023).

In the first assay the test system is NCIH929.1 cells. Kind of assay: Cell viability assay for Table 2 (CellTiter-Glo 2.0, ATP quantification, 96 hr). In kind it is cell-based. Particulars: 96 h. An excerpt: Cell Viability Assay for Table 2
CellTiter-Glo® 2.0 Assay was purchased from Promega (Madison, Wis., USA). NCIH929.1 cell line was purchased from ATCC (Manassas, Va., USA). Cell culture flasks and 384-well microplates were acquired from VWR (Radnor, Pa., USA).
For orientation: Cellular ATP, detected with luciferase, serves as a proxy for viable cell number.
The compound `O=C1CCC(N2C(=O)c3cccc4c(Cc5cn(C6CCN(CC7(C(F)(F)F)CC7)CC6)nc5Cl)ccc2c34)C(=O)N1` (stereo not shown) [Compound 201, 3-[6-[[3-chloro-1-[1-[[1-(trifluoromethyl)cyclopropyl]methyl]-4-piperidyl]pyrazol-4-yl]methyl]-2-oxo-benzo[cd]indol-1-yl]piperidine-2,6-dione] displayed an IC50 of under 1 nM.

Staying with this assay, now noted: 96 h, NCIH929.1 cell viability, 96 hr, top concentration 1 μM, 14 points half log titration; read-out: IC50.
With `N#Cc1ccc(N2CCC(Nc3ccc(Cc4ccc5c6c(cccc46)C(=O)N5C4CCC(=O)NC4=O)cc3)CC2)c(F)c1` (stereo not shown) [Compound 166, 4-[4-[4-[[1-(2,6-dioxo-3-piperidyl)-2-oxo-benzo[cd]indol-6-yl]methyl]anilino]-1-piperidyl]-3-fluoro-benzonitrile], the IC50 is under 1 nM. On to `CC1(C(=O)N2CCN(c3ccc(Cc4ccc5c6c(cccc46)C(=O)N5C4CCC(=O)NC4=O)cc3)CC2)CCC1` (stereo not shown) [Compound 167, 3-[6-[[4-[4-(1-methylcyclobutanecarbonyl)piperazin-1-yl]phenyl]methyl]-2-oxo-benzo[cd]indol-1-yl]piperidine-2,6-dione], for which the IC50 is under 1 nM. Regarding `CC1(CN2CCN(c3ccc(Cc4ccc5c6c(cccc46)C(=O)N5C4CCC(=O)NC4=O)cc3)CC2)CCC1` (stereo not shown) [Compound 168, 3-[6-[[4-[4-[(1-methylcyclobutyl)methyl]piperazin-1-yl]phenyl]methyl]-2-oxo-benzo[cd]indol-1-yl]piperidine-2,6-dione], the IC50 is under 1 nM. As to `CC1(C(=O)N2CCC(c3ccc(Cc4ccc5c6c(cccc46)C(=O)N5C4CCC(=O)NC4=O)cc3)CC2)CCC1` (stereo not shown) [Compound 169, 3-[6-[[4-[1-(1-methylcyclobutanecarbonyl)-4-piperidyl]phenyl]methyl]-2-oxo-benzo[cd]indol-1-yl]piperidine-2,6-dione], the IC50 is under 1 nM. For the compound `CC1(CN2CCC(c3ccc(Cc4ccc5c6c(cccc46)C(=O)N5C4CCC(=O)NC4=O)cc3)CC2)CCC1` (stereo not shown) [Compound 170, 3-[6-[[4-[1-[(1-methylcyclobutyl)methyl]-4-piperidyl]phenyl]methyl]-2-oxo-benzo[cd]indol-1-yl]piperidine-2,6-dione], the IC50 was under 1 nM. The same measure, in the same setting: for `N#Cc1ccc(N2CCC(Oc3ccc(Cc4ccc5c6c(cccc46)C(=O)N5C4CCC(=O)NC4=O)cc3)CC2)c(F)c1` (stereo not shown) [Compound 171, 4-[4-[4-[[1-(2,6-dioxo-3-piperidyl)-2-oxo-benzo[cd]indol-6-yl]methyl]phenoxy]-1-piperidyl]-3-fluoro-benzonitrile] the value was under 1 nM. Regarding `N#Cc1ccc(N2CCN(Cc3ccc(Cc4ccc5c6c(cccc46)C(=O)N5C4CCC(=O)NC4=O)cc3)C(=O)C2)c(F)c1` (stereo not shown) [Compound 172, 4-[4-[[4-[[1-(2,6-dioxo-3-piperidyl)-2-oxo-benzo[cd]indol-6-yl]methyl]phenyl]methyl]-3-oxo-piperazin-1-yl]-3-fluoro-benzonitrile], the IC50 is under 1 nM. Turning to `CC1(C(=O)N2CCC(n3cc(Sc4ccc5c6c(cccc46)C(=O)N5C4CCC(=O)NC4=O)cn3)CC2)CCC1` (stereo not shown) [Compound 174, 3-[6-[1-[1-(1-methylcyclobutanecarbonyl)-4-piperidyl]pyrazol-4-yl]sulfanyl-2-oxo-benzo[cd]indol-1-yl]piperidine-2,6-dione], the IC50 is under 1 nM. For the compound `CC1(C(=O)N2CCC(n3cc(S(=O)(=O)c4ccc5c6c(cccc46)C(=O)N5C4CCC(=O)NC4=O)cn3)CC2)CCC1` (stereo not shown) [Compound 175, 3-[6-[1-[1-(1-methylcyclobutanecarbonyl)-4-piperidyl]pyrazol-4-yl]sulfonyl-2-oxo-benzo[cd]indol-1-yl]piperidine-2,6-dione], the IC50 was under 100 nM. As to `O=C1CCC(N2C(=O)c3cccc4c(Cc5cnn(C6CC(OCc7ccccc7)C6)c5)ccc2c34)C(=O)N1` (stereo not shown) [Compound 177, 3-[6-[[1-(3-benzyloxycyclobutyl)pyrazol-4-yl]methyl]-2-oxo-benzo[cd]indol-1-yl]piperidine-2,6-dione], the IC50 is under 100 nM.

Take `CC1(C(=O)N2CCC(c3ccn(Cc4ccc5c6c(cccc46)C(=O)N5C4CCC(=O)NC4=O)n3)CC2)CCC1` (stereo not shown) [Compound 180, 3-[6-[[3-[1-(1-methylcyclobutanecarbonyl)-4-piperidyl]pyrazol-1-yl]methyl]-2-oxo-benzo[cd]indol-1-yl]piperidine-2,6-dione]: the IC50 is under 1 nM. Regarding `CC1(C(=O)N2CCC(N3CCN(Cc4ccc5c6c(cccc46)C(=O)N5C4CCC(=O)NC4=O)C3=O)CC2)CCC1` (stereo not shown) [Compound 181, 3-[6-[[3-[1-(1-methylcyclobutanecarbonyl)-4-piperidyl]-2-oxo-imidazolidin-1-yl]methyl]-2-oxo-benzo[cd]indol-1-yl]piperidine-2,6-dione], the IC50 is under 1 nM.

As for `O=C1CCC(N2C(=O)c3cccc4c(Cc5ccc(CN6CCN(c7ccccc7F)CC6)cc5)ccc2c34)C(=O)N1` (stereo not shown) [Compound 188, 3-[6-[[4-[[4-(2-fluorophenyl)piperazin-1-yl]methyl]phenyl]methyl]-2-oxo-benzo[cd]indol-1-yl]piperidine-2,6-dione], the IC50 is under 1 nM. Consider `CC1(CN2CCC(n3cc(Cc4ccc5c6c(cccc46)C(=O)N5C4CCC(=O)NC4=O)cn3)(C(F)(F)F)CC2)CCC1` (stereo not shown) [Compound 191, 3-[6-[[1-[1-[(1-methylcyclobutyl)methyl]-4-(trifluoromethyl)-4-piperidyl]pyrazol-4-yl]methyl]-2-oxo-benzo[cd]indol-1-yl]piperidine-2,6-dione], for which the IC50 is under 1 nM.

As to `CC1(C(=O)N2CCC(n3cc(Cc4ccc5c6c(cccc46)C(=O)N5C4CCC(=O)NC4=O)nn3)CC2)CCC1` (stereo not shown) [Compound 192, 3-[6-[[1-[1-(1-methylcyclobutanecarbonyl)-4-piperidyl]triazol-4-yl]methyl]-2-oxo-benzo[cd]indol-1-yl]piperidine-2,6-dione], the IC50 is under 1 nM.

Consider `CC1(CN2CCC(C#N)(n3cc(Cc4ccc5c6c(cccc46)C(=O)N5C4CCC(=O)NC4=O)cn3)CC2)CCC1` (stereo not shown) [Compound 193, 4-[4-[[1-(2,6-dioxo-3-piperidyl)-2-oxo-benzo[cd]indol-6-yl]methyl]pyrazol-1-yl]-1-[(1-methylcyclobutyl)methyl]piperidine-4-carbonitrile], for which the IC50 was under 1 nM. `NCC1(n2cc(Cc3ccc4c5c(cccc35)C(=O)N4C3CCC(=O)NC3=O)cn2)CCN(C(=O)C2(C(F)(F)F)CC2)CC1` (stereo not shown) [Compound 194, 3-[6-[[1-[4-(aminomethyl)-1-[1-(trifluoromethyl)cyclopropanecarbonyl]-4-piperidyl]pyrazol-4-yl]methyl]-2-oxo-benzo[cd]indol-1-yl]piperidine-2,6-dione]: the IC50 was under 100 nM. In the case of `O=C1CCC(N2C(=O)c3cccc4c(Cc5cnn(C6(CO)CCN(C(=O)C7(C(F)(F)F)CC7)CC6)c5)ccc2c34)C(=O)N1` (stereo not shown) [Compound 195, 3-[6-[[1-[4-(hydroxymethyl)-1-[1-(trifluoromethyl)cyclopropanecarbonyl]-4-piperidyl]pyrazol-4-yl]methyl]-2-oxo-benzo[cd]indol-1-yl]piperidine-2,6-dione], the IC50 was under 1 nM.

For the compound `N#Cc1ccc(N2CCN(C(=O)c3ccc(Cc4ccc5c6c(cccc46)C(=O)N5C4CCC(=O)NC4=O)cc3)CC2)c(F)c1` (stereo not shown) [Compound 196, 4-[4-[4-[[1-(2,6-dioxo-3-piperidyl)-2-oxo-benzo[cd]indol-6-yl]methyl]benzoyl]piperazin-1-yl]-3-fluoro-benzonitrile], the IC50 was under 1 nM. For the compound `O=C1CCC(N2C(=O)c3cccc4c(Cc5ccc(CN6CCOCC6=O)cc5)ccc2c34)C(=O)N1` (stereo not shown) [Compound 197, 3-[2-oxo-6-[[4-[(3-oxomorpholin-4-yl)methyl]phenyl]methyl]benzo[cd]indol-1-yl]piperidine-2,6-dione], the IC50 is under 1 nM. Take `CC1(n2cc(Cc3ccc4c5c(cccc35)C(=O)N4C3CCC(=O)NC3=O)cn2)CCCCC1` (stereo not shown) [Compound 198, 3-[6-[[1-(1-methylcyclohexyl)pyrazol-4-yl]methyl]-2-oxo-benzo[cd]indol-1-yl]piperidine-2,6-dione]: the IC50 is under 1 nM. Take `N#CC1(CN2CCC(n3cc(Cc4ccc5c6c(cccc46)C(=O)N5C4CCC(=O)NC4=O)cn3)CC2)CC1` (stereo not shown) [Compound 199, 1-[[4-[4-[[1-(2,6-dioxo-3-piperidyl)-2-oxo-benzo[cd]indol-6-yl]methyl]pyrazol-1-yl]-1-piperidyl]methyl]cyclopropanecarbonitrile]: the IC50 was under 1 nM.

As to `CC1(CN2CCC(n3cc(Cc4ccc5c6c(cccc46)C(=O)N5C4CCC(=O)NC4=O)c(Cl)n3)CC2)CCC1` (stereo not shown) [Compound 200, 3-[6-[[3-chloro-1-[1-[(1-methylcyclobutyl)methyl]-4-piperidyl]pyrazol-4-yl]methyl]-2-oxo-benzo[cd]indol-1-yl]piperidine-2,6-dione], the IC50 is under 1 nM. For `O=C1CCC(N2C(=O)c3cccc4c(Cc5ccc(CN6CCN(S(=O)(=O)c7ccc(F)cc7)CC6)cc5)ccc2c34)C(=O)N1` (stereo not shown) [Compound 202, 3-[6-[[4-[[4-(4-fluorophenyl)sulfonylpiperazin-1-yl]methyl]phenyl]methyl]-2-oxo-benzoindol-1-yl]piperidine-2,6-dione], the IC50 is under 1 nM. Regarding `O=C1CCC(N2C(=O)c3cccc4c(Cc5ccc(CC6CCN(c7ccc(F)cc7)CC6)cc5)ccc2c34)C(=O)N1` (stereo not shown) [Compound 203, 3-[6-[[4-[[1-(4-fluorophenyl)-4-piperidyl]methyl]phenyl]methyl]-2-oxo-benzo[cd]indol-1-yl]piperidine-2,6-dione], the IC50 was under 1 nM.

Turning to `O=C1CCC(N2C(=O)c3cccc4c(Cc5cnn(C6CCN(C(=O)C7(CO)CCC7)CC6)c5)ccc2c34)C(=O)N1` (stereo not shown) [Compound 205, 3-[6-[[1-[1-[1-(hydroxymethyl)cyclobutanecarbonyl]-4-piperidyl]pyrazol-4-yl]methyl]-2-oxo-benzo[cd]indol-1-yl]piperidine-2,6-dione], the IC50 was under 1 nM. For `CC1(CN2CCC(n3nc(Cl)cc3Cc3ccc4c5c(cccc35)C(=O)N4C3CCC(=O)NC3=O)CC2)CCC1` (stereo not shown) [Compound 206, 3-[6-[[5-chloro-2-[1-[(1-methylcyclobutyl)methyl]-4-piperidyl]pyrazol-3-yl]methyl]-2-oxo-benzo[cd]indol-1-yl]piperidine-2,6-dione], the IC50 is under 1 nM.

One may read the IC50 as the concentration needed to halve the response being measured.
